Experiments:
[1] = cited from earlier work; for Water solubility: at 25 C.; for VP: at 25 deg C.
rats [2] = settings: cited from earlier work
[3] = system: Common garden slugs (Arion distinctus); test: slug mucosal contact test (mucus production and body weight loss); type: in vivo; settings: for Mucus loss initial test / Mucus loss 24 test: 30-min contact, % of body weight; for Mucus loss initial test: 60 mg test substance, mean n = 6, initial treatment; for Mucus loss 24 test: second treatment 24 hours later; for Mucus loss 24 test / Remaining body weight after 24 h and 48 h: mean n = 6; for Potency - loss of body weight relative to metaldehyde after deduction of weight loss from the control: after 48 hours; for Potency - loss of body weight relative to metaldehyde after deduction of weight loss from the control / Potency - loss of mucus relative to metaldehyde: metaldehyde = 100; for Combined mucus loss: combined losses of mucus for the two tests; for toxicity in mollusc foot contact tests relative to metaldehyde: contact with the mucus membrane of molluscs; for Potency - loss of mucus relative to metaldehyde: from combined mucus loss; for Remaining body weight after 24 h and 48 h: percentage of the initial body weight; for Reduction in toxic response relative to metaldehyde: Loss of body weight (Table 3) / Reduction in toxic response relative to metaldehyde: Loss of mucus (Table 2): weight for weight basis
Method: To investigate relative toxicity of aldehydes to molluscs, tests were conducted using a method adapted from Adriaens et al. The Mucosal Toxicity of Different Benzalkonium Chloride Analogues Evaluated with an Alternative Test. Pharmaceutical Research, Vol. 18, pages 937-941, 2001.
Common garden slugs (Arion distinctus) weighing between 1.9 g and 5.2 g were collected from a UK suburban garden and placed into vented plastic boxes lined with paper towels moistened with phosphate buffered saline. The boxes were kept in the shade inside a greenhouse (10° C. minimum) and fed with lettuce and commercial dog food. Experiments were conducted on six slugs for each test treatment using petri dishes containing Whitman Grade 1 general purpose filter papers (90 mm diameter). Filter papers were wetted to saturation with phosphate buffered saline (pH 7.4) and allowed to drain before placing in the petri dishes. At the beginning of each test slugs were placed individually in a petri dish which had been prepared 3 hours previously as a control or with 60 mg of the test substance consisting of fine powdered metaldehyde or a liquid aldehyde. After 30-min incubation slugs were removed and returned to petri dishes with filter papers wetted only with the phosphate buffered saline. The slugs were weighed separately before and after treatment. The change in weight caused by the treatment was calculated and expressed as % (w/w) of the body weight. The petri dishes containing the test medium were also weighed before and after the treatment. The weight of mucus produced was calculated and expressed as % (w/w) of the body weight. The treatment and measurements were repeated 24 hour later and final weights taken after a second 24 hour period.

rats [4] = test: acute oral toxicity in rats (LD50); type: in vivo, rat; settings: weight for weight basis

Row | SMILES | Water solubility [1] | VP [1] | LD50 acute oral toxicity (rats [2]) | Mucus loss initial test [3] | Mucus loss 24 test [3] | Potency - loss of body weight relative to metaldehyde after deduction of weight loss from the control [3] | Combined mucus loss [3] | toxicity in mollusc foot contact tests relative to metaldehyde [3] | Potency - loss of mucus relative to metaldehyde [3] | Remaining body weight after 24 h and 48 h ([3]; 24 h after initial treatment) | Remaining body weight after 24 h and 48 h ([3]; 48 h after initial treatment) | Reduction in toxic response relative to metaldehyde: Loss of body weight (Table 3) [3] | Reduction in toxic response relative to metaldehyde: Loss of mucus (Table 2) [3] | oral toxicity in rats lower relative to metaldehyde (rats [4])
1 | CCCCCCCCCC=O [1-decanal] | 43.52 µg/mL | 0.235 mm Hg | LD 50 3096 mg/kg | 3.28 % w/w | 2.64 % w/w | 40% | 5.92 % w/w | less than single fold reductions | 62% | 79.7 wt % | 74.1 wt % | 0.40 | 0.62 | approximately 8 fold
2 | CC1OC(C)OC(C)O1 (stereo not shown) [Paraldehyde, reference compound] | 24140 µg/mL | 15.7 mm Hg | LD 50 2711 mg/kg | – | – | – | – | – | – | – | – | – | – | –
3 | CCCC=O [Butanal] | – | 108 mm Hg | – | – | – | – | – | – | – | – | – | – | – | –
4 | CCCCCCCC=O [1-octanal] | 394.3 µg/mL | 1.49 mm Hg | LD 50 4616 mg/kg | 3.82 % w/w | 2.98 % w/w | 58% | 6.8 % w/w | less than single fold reductions | 72% | 78.6 wt % | 68.7 wt % | 0.58 | 0.72 | approximately 8 fold
5 | CCCCCCCCC=O [1-nonanal] | – | 0.564 mm Hg | LD 50 > 5000 mg/kg | – | – | – | – | – | – | – | – | – | – | –
6 | CCCCCC=O [Hexanal] | – | 9.57 mm Hg | – | – | – | – | – | – | – | – | – | – | – | –
7 | CC1OC(C)OC(C)OC(C)O1 (stereo not shown) [Metaldehyde, reference compound] | – | 0.000674 mm Hg | LD50 630 mg/kg | 5.55 % w/w | 3.94 % w/w | 100% | 9.49 % w/w | – | 100% | 68.5 wt % | 55.4 wt % | – | – | –
8 | CCCCCCC=O [1-heptanal] | 1167 µg/mL | 3.52 mm Hg | LD50 > 5000 mg/kg | 2.77 % w/w | 0.55 % w/w | 33% | 3.32 % w/w | less than single fold reductions | 35% | 85.2 wt % | 76.5 wt % | 0.35 | 0.35 | approximately 8 fold
9 | CC=O [Acetaldehyde, reference compound] | – | 902 mm Hg | LD50 661 mg/kg | – | – | – | – | – | – | – | – | – | – | –
10 | CCC=O [Propanal, reference compound] | – | 317 mm Hg | – | – | – | – | – | – | – | – | – | – | – | –

— US20190373887A1, “ENCAPSULATED MOLUSCICIDE” (INGWERMAT LIMITED, priority 2015, published 2019)
